Test results taken from publication PMC10747602, “Dose Response, Dosimetric, and Metabolic Evaluations of Replacement PFAS Perfluoro-(2,5,8-trimethyl-3,6,9-trioxadodecanoic) Acid (HFPO-TeA)” (Toxics, 2023).
Values joined by “and” are separate entries in the source; they are usually repeats but may differ in a detail not shown here. Equal entries are not always repeated. Where two headings read alike, the source gives them in different places.

Experiment: Plasma HFPO-TeA dosimetry
Format: in vivo, Sprague Dawley rats
Description: Whole blood was collected from the retro-orbital plexus under isoflurane anesthesia 2 h following the first dose and by cardiac puncture 24 h after the last dosage. Blood was stored in anticoagulant potassium ethylenediaminetetraacetic acid (K3EDTA)-coated vacutainers, and then processed to isolate plasma via centrifugation. Animals were euthanized via carbon dioxide asphyxiation and subsequent exsanguination. Liver was collected, weighed, cubed, and divided into three aliquots. One aliquot of tissue was flash-frozen in liquid nitrogen and stored at −80 °C for analytical chemistry analyses. The remaining two aliquots were placed in RNALater and frozen for use in the companion transcriptomic study. Liver and plasma samples were received at the U.S. EPA Center for Computational Toxicology and Exposure, Advanced Analytical Chemistry Methods Branch in Research Triangle Park, North Carolina, USA, and stored at −80 °C prior to extraction.
Detailed information on the procedure, chemicals, and materials used in the plasma HFPO-TeA dosimetry work can be found in Supplementary Text S4 and Table S3. Plasma preparation (2 h and 5 days) was modified from Conley et al.’s work and is detailed in Supplementary Text S4 [45]. Briefly, aliquots (25 µL) were mixed with methanol (MeOH) and water (H2O) containing 0.1 M FA, spiked with the internal standard perfluorohexadecanoic acid (PFHxDA), and then denatured plasma proteins were precipitated using ACN. Samples were held at −20 °C then centrifuged for separation of the supernatant. Supernatants were collected and stored at −20 °C prior to analysis.
Targeted analysis of HFPO-TeA was conducted on a Sciex X500R QTOF liquid chromatography/mass spectrometer system operated in high-resolution MRM negative ion ESI mode. A Phenomenex C18 column (Kinetex XB-C18, 100 × 2.1 mm, particle size 2.6 µm) was used for chromatographic separation with the flow rate set to 0.2 mL/min and a temperature of 40 °C. […] Ammonium formate (4 mM) was added to both eluents. Additional details of the instrument parameters are provided in Table S8 and monitored transitions in Table S9. Matrix blanks were analyzed with each sample set. Statistical analysis is described in Supplementary Text S3. Normalization calculations are described in Supplementary Text S5 [47, 48].
All in vivo results values are reported as mean ± one standard deviation (SD). Statistical evaluation of in vivo data was conducted using a two-way analysis of variance (ANOVA) and Dunnett’s Test, both at α = 0.05 significance level, on GraphPad Prism v9.5.1.
Support ing Text S4: Plasma Dosimetry Chemicals, Materials, and Analysis Sprague Dawley rodent plasma (pooled, mixed sex) collected with ethylenediaminetetraacetic acid (EDTA) and sterile filtered (0.2 µm) was obtained from BioIVT (Westbury, NY, USA) and stored at -80 °C until use as the control matrix for generating calibration curves and as the matrix blank during plasma sample analysis. The HFPO-TeA (98.97% pure) used for calibration curve preparation was obtained from Oakwood Products Inc. (West Columbia, South Carolina, USA). Unlabeled perfluorohexadecanoic acid (CASRN 67905-19-5 | DTXSID1070800 | PFHxDA; ≥ 98% pure) was obtained from Cambridge Isotope Laboratories (Tewksbury, MA, USA) to serve as the internal standard since a labeled HFPO-TeA standard was not commercially available.
Aliquots (25 µL) were denatured with MeOH and H2O containing 0.1 M FA and then crashed using ACN. Volumes of MeOH, FA, and ACN were determined by the anticipated sample concentrations of […]
HFPO-TeA/mL plasma = 100 µL MeOH + 875 µL FA then 50 µL subsample removed and crashed with 950 µL ACN. Anticipated sample ranges were intentionally overlapped to account for HFPO-TeA concentration differences due to biological variability among the dose groups. The internal standard PFHxDA was added prior to the ACN crash. Samples were vortexed after the addition of each solvent. […]

O=C(O)C(F)(OC(F)(F)C(F)(OC(F)(F)C(F)(OC(F)(F)C(F)(F)C(F)(F)F)C(F)(F)F)C(F)(F)F)C(F)(F)F (stereo not drawn) [HFPO-TeA, perfluoro-(2,5,8-trimethyl-3,6,9-trioxadodecanoic) acid]
Plasma Conc. (0.3 mg/kg/day, F, 2 hours, individual rats): 0.124 µg/mL and 0.187 µM and 0.0778 µg/mL and 0.117 µM and 0.0785 µg/mL and 0.119 µM | 5D Plasma Conc. (0.3 mg/kg/day, F, 5 days of exposure, mean ± SD n=4): 0.854 ± 0.086 µM | Plasma Conc. (0.3 mg/kg/day, F, 5 days, individual rats): 0.492 µg/mL and 0.743 µM and 0.622 µg/mL and 0.939 µM | Plasma Conc. (0.3 mg/kg/day, M, 2 hours, individual rats): 0.094 µg/mL and 0.142 µM and 0.086 µg/mL and 0.129 µM and 0.101 µg/mL and 0.153 µM | 5D Plasma Conc. (0.3 mg/kg/day, M, 5 days of exposure, mean ± SD n=4): 0.827 ± 0.071 µM | concentration at 5 days (0.3 mg/kg/day, M, 5 days of exposure, mean ± SD n=4, read-out: 5D Plasma Conc.): 827 nM | Plasma Conc. (0.3 mg/kg/day, M, 5 days, individual rats): 0.586 µg/mL and 0.885 µM and 0.567 µg/mL | Plasma Conc. (0.9 mg/kg/day, F, 2 hours, individual rats): 0.309 µg/mL and 0.467 µM and 0.418 µg/mL and 0.631 µM and 0.392 µg/mL and 0.592 µM | Plasma Conc. (0.9 mg/kg/day, M, 2 hours, individual rats): 0.291 µg/mL and 0.439 µM and 0.450 µg/mL and 0.679 µM and 0.345 µg/mL and 0.521 µM | 5D Plasma Conc. (0.9 mg/kg/day, M, 5 days of exposure, mean ± SD n=4): 2.73 ± 0.45 µM | concentration at 5 days (0.9 mg/kg/day, M, 5 days of exposure, mean ± SD n=4, read-out: 5D Plasma Conc.): 2730 nM | Plasma Conc. (0.9 mg/kg/day, M, 5 days, individual rats): 1.45 µg/mL and 2.19 µM and 2.16 µg/mL and 3.26 µM and 1.75 µg/mL and 2.65 µM | Plasma Conc. (2.3 mg/kg/day, F, 2 hours, individual rats): 6.87 µg/mL and 10.4 µM and 7.78 µg/mL and 11.7 µM and 10.8 µg/mL and 16.3 µM and 14.6 µg/mL and 22.1 µM | Plasma Conc. (2.3 mg/kg/day, M, 2 hours, individual rats): 11.4 µg/mL and 17.3 µM and 8.06 µg/mL and 12.2 µM and 7.45 µg/mL and 11.3 µM | Plasma Conc. (2.3 mg/kg/day, M, 5 days, individual rats): 3.35 µg/mL and 5.06 µM and 3.50 µg/mL and 5.29 µM and 5.04 µg/mL and 7.61 µM | Plasma Conc. (6.3 mg/kg/day, F, 2 hours, individual rats): 19.5 µg/mL and 29.5 µM and 43.9 µg/mL and 66.4 µM and 41.1 µg/mL and 62.0 µM and 36.3 µg/mL and 54.9 µM | 5D Plasma Conc. (6.3 mg/kg/day, F, 5 days of exposure, mean ± SD n=4): 52.6 ± 14.3 µM | Plasma Conc. (6.3 mg/kg/day, M, 2 hours, individual rats): 24.4 µg/mL and 36.8 µM and 17.1 µg/mL and 25.8 µM and 24.9 µg/mL and 37.7 µM | Plasma Conc. (6.3 mg/kg/day, M, 5 days, individual rats): 15.5 µg/mL and 15.1 µg/mL and 22.9 µM and 23.8 µM and 18.5 µg/mL and 28.0 µM | 2 h Plasma Conc. (17 mg/kg/day, F, 2 h after first dose, mean ± SD n=4): 224 ± 76 µM | Plasma Conc. (17 mg/kg/day, F, 2 hours, individual rats): 197 µg/mL and 298 µM and 184 µg/mL and 278 µM and 94.0 µg/mL and 142 µM and 118 µg/mL and 179 µM | 5D Plasma Conc. (17 mg/kg/day, F, 5 days of exposure, mean ± SD n=4): 278 ± 28 µM | 2 h Plasma Conc. (17 mg/kg/day, M, 2 h after first dose, mean ± SD n=4): 126 ± 62 µM | Plasma Conc. (17 mg/kg/day, M, 2 hours, individual rats): 60.6 µg/mL and 91.6 µM and 55.8 µg/mL and 84.3 µM and 73.0 µg/mL and 110 µM and 218 µM | 5D Plasma Conc. (17 mg/kg/day, M, 5 days of exposure, mean ± SD n=4): 168 ± 53 µM | concentration at 5 days (17 mg/kg/day, M, 5 days of exposure, mean ± SD n=4, read-out: 5D Plasma Conc.): 168000 nM | Plasma Conc. (17 mg/kg/day, M, 5 days, individual rats): 65.4 µg/mL and 98.9 µM and 109 µg/mL and 165 µM and 150 µg/mL and 227 µM and 118 µg/mL and 179 µM | concentration at 2 h (female, Sprague Dawley, rat, plasma, oral, 0.3 mg/kg/day, F, 2 h after first dose, mean ± SD n=4, read-out: 2 h Plasma Conc.): 0.137 ± 0.033 µM | concentration at 2 h (female, Sprague Dawley, rat, plasma, oral, 0.3 mg/kg/day, F, 2 hours, individual rats, read-out: Plasma Conc.): 82 ng/mL and 124 nM | concentration at 5 days (female, Sprague Dawley, rat, plasma, oral, 0.3 mg/kg/day, F, 5 days, individual rats, read-out: Plasma Conc.): 550 ng/mL and 831 nM | concentration at 2 h (female, Sprague Dawley, rat, plasma, oral, 0.9 mg/kg/day, F, 2 h after first dose, mean ± SD n=4, read-out: 2 h Plasma Conc.): 0.62 ± 0.133 µM | concentration at 2 h (female, Sprague Dawley, rat, plasma, oral, 0.9 mg/kg/day, F, 2 hours, individual rats, read-out: Plasma Conc.): 523 ng/mL and 790 nM | concentration at 5 days (female, Sprague Dawley, rat, plasma, oral, 0.9 mg/kg/day, F, 5 days of exposure, mean ± SD n=4, read-out: 5D Plasma Conc.): 3620 ± 910 nM | concentration at 5 days (female, Sprague Dawley, rat, plasma, oral, 0.9 mg/kg/day, F, 5 days, individual rats, read-out: Plasma Conc.): 1870 ng/mL and 2.83 µM | concentration at 2 h (female, Sprague Dawley, rat, plasma, oral, 2.3 mg/kg/day, F, 2 h after first dose, mean ± SD n=4, read-out: 2 h Plasma Conc.): 15.1 ± 5.3 µM | concentration at 5 days (female, Sprague Dawley, rat, plasma, oral, 2.3 mg/kg/day, F, 5 days of exposure, mean ± SD n=4, read-out: 5D Plasma Conc.): 8920 ± 2360 nM | concentration at 5 days (female, Sprague Dawley, rat, plasma, oral, 2.3 mg/kg/day, F, 5 days, individual rats, read-out: Plasma Conc.): 5700 ng/mL and 8.62 µM | concentration at 2 h (female, Sprague Dawley, rat, plasma, oral, 6.3 mg/kg/day, F, 2 h after first dose, mean ± SD n=4, read-out: 2 h Plasma Conc.): 53.2 ± 16.5 µM | concentration at 5 days (female, Sprague Dawley, rat, plasma, oral, 6.3 mg/kg/day, F, 5 days of exposure, mean ± SD n=4, read-out: 5D Plasma Conc.): 52600 ± 14300 nM | concentration at 5 days (female, Sprague Dawley, rat, plasma, oral, 6.3 mg/kg/day, F, 5 days, individual rats, read-out: Plasma Conc.): 33900 ng/mL and 51.2 µM | concentration at 2 h (female, Sprague Dawley, rat, plasma, oral, 17 mg/kg/day, F, 2 h after first dose, mean ± SD n=4, read-out: 2 h Plasma Conc.): 224 ± 76 µM | concentration at 5 days (female, Sprague Dawley, rat, plasma, oral, 17 mg/kg/day, F, 5 days, individual rats, read-out: Plasma Conc.): 200000 ng/mL and 302 µM | concentration at 2 h (male, Sprague Dawley, rat, plasma, oral, 0.3 mg/kg/day, M, 2 h after first dose, mean ± SD n=4, read-out: 2 h Plasma Conc.): 0.15 ± 0.02 µM | concentration at 2 h (male, Sprague Dawley, rat, plasma, oral, 0.3 mg/kg/day, M, 2 hours, individual rats, read-out: Plasma Conc.): 117 ng/mL and 176 nM | concentration at 5 days (male, Sprague Dawley, rat, plasma, oral, 0.3 mg/kg/day, M, 5 days, individual rats, read-out: Plasma Conc.): 558 ng/mL and 843 nM | concentration at 2 h (male, Sprague Dawley, rat, plasma, oral, 0.9 mg/kg/day, M, 2 h after first dose, mean ± SD n=4, read-out: 2 h Plasma Conc.): 0.573 ± 0.113 µM | concentration at 2 h (male, Sprague Dawley, rat, plasma, oral, 0.9 mg/kg/day, M, 2 hours, individual rats, read-out: Plasma Conc.): 431 ng/mL and 651 nM | concentration at 5 days (male, Sprague Dawley, rat, plasma, oral, 0.9 mg/kg/day, M, 5 days, individual rats, read-out: Plasma Conc.): 1870 ng/mL and 2.83 µM | concentration at 2 h (male, Sprague Dawley, rat, plasma, oral, 2.3 mg/kg/day, M, 2 h after first dose, mean ± SD n=4, read-out: 2 h Plasma Conc.): 13.1 ± 2.8 µM | concentration at 2 h (male, Sprague Dawley, rat, plasma, oral, 2.3 mg/kg/day, M, 2 hours, individual rats, read-out: Plasma Conc.): 7650 ng/mL and 11.6 µM | concentration at 5 days (male, Sprague Dawley, rat, plasma, oral, 2.3 mg/kg/day, M, 5 days of exposure, mean ± SD n=4, read-out: 5D Plasma Conc.): 6640 ± 1730 nM | concentration at 5 days (male, Sprague Dawley, rat, plasma, oral, 2.3 mg/kg/day, M, 5 days, individual rats, read-out: Plasma Conc.): 5680 ng/mL and 8.58 µM | concentration at 2 h (male, Sprague Dawley, rat, plasma, oral, 6.3 mg/kg/day, M, 2 h after first dose, mean ± SD n=4, read-out: 2 h Plasma Conc.): 34 ± 5.5 µM | concentration at 2 h (male, Sprague Dawley, rat, plasma, oral, 6.3 mg/kg/day, M, 2 hours, individual rats, read-out: Plasma Conc.): 23700 ng/mL and 35.8 µM | concentration at 5 days (male, Sprague Dawley, rat, plasma, oral, 6.3 mg/kg/day, M, 5 days of exposure, mean ± SD n=4, read-out: 5D Plasma Conc.): 24500 ± 2300 nM | concentration at 5 days (male, Sprague Dawley, rat, plasma, oral, 6.3 mg/kg/day, M, 5 days, individual rats, read-out: Plasma Conc.): 23300 nM | concentration at 2 h (male, Sprague Dawley, rat, plasma, oral, 17 mg/kg/day, M, 2 h after first dose, mean ± SD n=4, read-out: 2 h Plasma Conc.): 126 ± 62 µM
